Laboratory results taken from patent publication EP0677522A1, “8-METHOXYQUINOLONECARBOXYLIC ACID DERIVATIVE” (priority 1992, dated 1994).
Converted amounts (≈) assume the structure as drawn.

Assays:
[1] = tested on: male ICR mice; experiment: Preliminary micronucleus test; format: in vivo; conditions: for Emergence of micronucleus in polychromatic cells compared with the control group: after 24 hours, Example 5: in the dose of 1,000 mg/kg or above
Experimental: A preliminary micronucleus test was performed by oral administration to male ICR mice. […]

[2] = tested on: P. mirabilis IFO 3849; experiment: In vitro antibacterial activity (MIC), Japan Society of Chemotherapy Standard; format: cell-based; conditions: Proteus mirabilis, IFO3849; inoculated cells 10⁶ cells/ml
Experimental: (§1) The in vitro antibacterial activity (minimum inhibitory concentration, MIC, µg/ml) of the test compounds was determined according to Japan Society of Chemotherapy Standard [Chemotherapy, vol. 29, pp 76-79 (1981)].
(§2) Inoculated cells were 10⁶ cells/ml and the strain with * was incubated in a medium supplemented with 10% horse blood. The mark "1)" means quinolone resistant MRSA and "2)" means quinolone resistant bacteria.

[3] = tested on: Staphylococcus aureus FDA 209P; experiment: as above; format: cell-based; conditions: FDA209P, inoculated cells 10⁶ cells/ml
Experimental: as §1, §2

[4] = tested on: Proteus vulgaris IFO 3988; experiment: as above; format: cell-based; conditions: IFO3988, inoculated cells 10⁶ cells/ml
Experimental: as §1, §2

[5] = tested on: Citrobacter freundii IFO 12681; experiment: as above; format: cell-based; conditions: IFO12681, inoculated cells 10⁶ cells/ml
Experimental: as §1, §2

[6] = tested on: M.catarrhalis ATCC 25238; experiment: as above; format: cell-based; conditions: Moraxella catarrhalis, ATCC25238; inoculated cells 10⁶ cells/ml; medium supplemented with 10% horse blood
Experimental: as §1, §2

[7] = tested on: Serratia marcescens IFO 12648; experiment: as above; format: cell-based; conditions: IFO12648, inoculated cells 10⁶ cells/ml
Experimental: as §1, §2

[8] = tested on: L.monocytogenes VTU-206; experiment: as above; format: cell-based; conditions: Listeria monocytogenes, VTU206; inoculated cells 10⁶ cells/ml; medium supplemented with 10% horse blood
Experimental: as §1, §2

[9] = tested on: A.calcoaceticus IFO 13006; experiment: as above; format: cell-based; conditions: Acinetobacter calcoaceticus, IFO13006; inoculated cells 10⁶ cells/ml
Experimental: as §1, §2

[10] = tested on: E. avium EAY-30; experiment: as above; format: cell-based; conditions: Enterococcus avium, EAY30, inoculated cells 10⁶ cells/ml
Experimental: as §1, §2

[11] = tested on: Enterobacter cloacae IFO 12937; experiment: as above; format: cell-based; conditions: IFO12937, inoculated cells 10⁶ cells/ml
Experimental: as §1, §2

[12] = tested on: Streptococcus pyogenes C-203; experiment: as above; format: cell-based; conditions: C203, inoculated cells 10⁶ cells/ml, medium supplemented with 10% horse blood
Experimental: as §1, §2

[13] = tested on: S. pneumoniae Type-III; experiment: as above; format: cell-based; conditions: Streptococcus pneumoniae; inoculated cells 10⁶ cells/ml; medium supplemented with 10% horse blood
Experimental: as §1, §2

[14] = tested on: Escherichia coli NIHJ JC-2; experiment: as above; format: cell-based; conditions: NIHJJC2, inoculated cells 10⁶ cells/ml
Experimental: as §1, §2

[15] = tested on: Enterococcus faecalis LS-101; experiment: as above; format: cell-based; conditions: LS101, inoculated cells 10⁶ cells/ml
Experimental: as §1, §2

[16] = tested on: K.pneumoniae DT-S; experiment: as above; format: cell-based; conditions: Klebsiella pneumoniae; inoculated cells 10⁶ cells/ml
Experimental: as §1, §2

[17] = tested on: S. epidermidis ATCC 12228; experiment: as above; format: cell-based; conditions: Staphylococcus epidermidis, ATCC12228; inoculated cells 10⁶ cells/ml
Experimental: as §1, §2

[18] = tested on: Shigella flexneri EW-10; experiment: as above; format: cell-based; conditions: EW10, inoculated cells 10⁶ cells/ml
Experimental: as §1, §2

[19] = tested on: E. faecium EFMY-28; experiment: as above; format: cell-based; conditions: Enterococcus faecium, EFMY28; inoculated cells 10⁶ cells/ml
Experimental: as §1, §2

[20] = tested on: S. aureus No.88; experiment: as above; format: cell-based; conditions: Staphylococcus aureus; quinolone resistant MRSA; inoculated cells 10⁶ cells/ml
Experimental: as §1, §2

[21] = tested on: P.aeruginosa U-31; experiment: as above; format: cell-based; conditions: Pseudomonas aeruginosa, U31; inoculated cells 10⁶ cells/ml
Experimental: as §1, §2

[22] = tested on: S. aureus MRSA Y-238; experiment: Protection of mice from experimental infection; format: in vivo; conditions: Table 3-1: male mice; intraperitoneal inoculation 7.5×10⁶ cells/mouse (185×LD₅₀); oral administration one hour after inoculation; survival ratio at 7 days
Experimental: (§3) Experimental infection was caused by intraperitoneal inoculation of respective bacteria to male mice. One hour after the inoculation, a test compound was orally administered to the mice. The therapeutic effect of each test compound was evaluated by reference to the 50% effective dose (ED₅₀) which was based on the survival ratio at 7 days after the administration according to the probit method [Proc. Soc. Exp. Med., Vol. 57, p 261-264 (1944)]. The minimum inhibitory concentration (MIC) of the infectious bacteria used was also determined. […]

[23] = tested on: E. coli KC-14; experiment: Protection of mice from experimental infection; format: in vivo; conditions: Table 3-1: male mice; intraperitoneal inoculation 5.0×10⁶ cells/mouse (744×LD₅₀); oral administration one hour after inoculation; survival ratio at 7 days
Experimental: as §3

[24] = tested on: S. aureus Smith; experiment: Protection of mice from experimental infection; format: in vivo; conditions: male mice; intraperitoneal inoculation 2.8×10⁶ cells/mouse (123×LD₅₀); oral administration one hour after inoculation; survival ratio at 7 days, probit method
Experimental: as §3

[25] = tested on: S. aureus MRSA Y-238; experiment: MIC of the infectious bacteria used for experimental infection; format: cell-based; conditions: Staphylococcus aureus, infectious strain of the mouse protection test
Experimental: as §1, §3

[26] = tested on: E. coli KC-14; experiment: as above; format: cell-based; conditions: Escherichia coli, KC14; infectious strain of the mouse protection test
Experimental: as §1, §3

[27] = tested on: S. aureus Smith; experiment: as above; format: cell-based; conditions: Staphylococcus aureus; infectious strain of the mouse protection test
Experimental: as §1, §3

[28] = tested on: Mycobacterium smegmatis IFO 13167; experiment: Antibacterial effect against specific bacteria (MIC); format: cell-based; conditions: Mycolicibacterium smegmatis, IFO13167; same manner as Experimental Example 1
Experimental: as §1
(§4) In the same manner as in Experimental Example 1, the antibacterial effect against specific bacteria such as Chlamydia, Mycoplasma and acid-fast bacteria and anaerobic bacteria was determined.

[29] = tested on: Mycoplasma pneumoniae ATCC 29343; experiment: as above; format: cell-based; conditions: ATCC29343, same manner as Experimental Example 1
Experimental: as §1, §4

[30] = tested on: Chlamydia trachomatis D/UW-3Cx; experiment: as above; format: cell-based; conditions: same manner as Experimental Example 1
Experimental: as §1, §4

[31] = tested on: Ureaplasma urealyticum ATCC 27618; experiment: as above; format: cell-based; conditions: ATCC27618, same manner as Experimental Example 1
Experimental: as §1, §4

[32] = tested on: Bacteroides fragilis GAI 5560; experiment: as above; format: cell-based; conditions: GAI5560, same manner as Experimental Example 1
Experimental: as §1, §4

## COc1c(N2CC[C@](N)(CF)C2)c(F)cc2c(=O)c(C(=O)O)cn(C3CC3)c12 [Example 5, (R)-7-(3-amino-3-fluoromethylpyrrolidin-1-yl)-1-cyclopropyl-6-fluoro-1,4-dihydro-8-methoxy-4-oxo-3-quinolinecarboxylic acid]
[1]; oral
  Emergence of micronucleus in polychromatic cells compared with the control group: showed significant increase in emergence frequency of micronucleus
[1]; oral, dose 500 mg/kg
  Emergence of micronucleus (%): 0.45±0.28 %
[1]; oral, dose 1000 mg/kg
  Emergence of micronucleus (%): 1.45±1.45 %
[1]; oral, dose 2000 mg/kg
  Emergence of micronucleus (%): 2.38±0.85 %
[2]
  MIC: 0.2 µg/mL (≈ 0.508 µM)
[3]
  MIC: ≤ 0.006 µg/mL
[4]
  MIC: 0.39 µg/mL (≈ 0.991 µM)
[5]
  MIC: 0.05 µg/mL (≈ 0.127 µM)
[6]
  MIC: 0.012 µg/mL (≈ 0.0305 µM)
[7]
  MIC: 0.2 µg/mL (≈ 0.508 µM)
[8]
  MIC: 0.1 µg/mL (≈ 0.254 µM)
[9]
  MIC: 0.025 µg/mL (≈ 0.0636 µM)
[10]
  MIC: 0.1 µg/mL (≈ 0.254 µM)
[11]
  MIC: 0.2 µg/mL (≈ 0.508 µM)
[12]
  MIC: 0.05 µg/mL (≈ 0.127 µM)
[13]
  MIC: 0.012 µg/mL (≈ 0.0305 µM)
[14]
  MIC: 0.025 µg/mL (≈ 0.0636 µM)
[15]
  MIC: 0.012 µg/mL (≈ 0.0305 µM)
[16]
  MIC: 0.05 µg/mL (≈ 0.127 µM)
[17]
  MIC: 0.012 µg/mL (≈ 0.0305 µM)
[18]
  MIC: 0.012 µg/mL (≈ 0.0305 µM)
[19]
  MIC: 0.1 µg/mL (≈ 0.254 µM)
[20]
  MIC: 0.78 µg/mL (≈ 1.98 µM)
[21]
  MIC: 0.39 µg/mL (≈ 0.991 µM)

## COc1c(N2CC[C@@](N)(CF)C2)c(F)cc2c(=O)c(C(=O)O)cn(C3CC3)c12 [Example 6, (S)-7-(3-amino-3-fluoromethylpyrrolidin-1-yl)-1-cyclopropyl-6-fluoro-1,4-dihydro-8-methoxy-4-oxo-3-quinoline carboxylic acid]
[22]
  ED₅₀ (mg/mouse) (95% confidence limit): 1.54(1.103-2.151) mg/mouse
[23]
  ED₅₀ (mg/mouse) (95% confidence limit): 0.011(0.008-0.015) mg/mouse
[24]
  ED₅₀ (mg/mouse) (95% confidence limit): 0.036(0.025-0.052) mg/mouse
[1]; oral
  Emergence of micronucleus in polychromatic cells compared with the control group: did not show significant difference in emergence of micronucleus
[1]; oral, dose 500 mg/kg
  Emergence of micronucleus (%): 0.16±0.16%
[1]; oral, dose 1000 mg/kg
  Emergence of micronucleus (%): 0.16±0.11%
[1]; oral, dose 2000 mg/kg
  Emergence of micronucleus (%): 0.26±0.04%
[2]
  MIC: 0.2 µg/mL (≈ 0.508 µM)
[3]
  MIC: ≤ 0.006 µg/mL
[4]
  MIC: 0.39 µg/mL (≈ 0.991 µM)
[5]
  MIC: 0.1 µg/mL (≈ 0.254 µM)
[6]
  MIC: 0.012 µg/mL (≈ 0.0305 µM)
[7]
  MIC: 0.2 µg/mL (≈ 0.508 µM)
[8]
  MIC: 0.1 µg/mL (≈ 0.254 µM)
[9]
  MIC: 0.025 µg/mL (≈ 0.0636 µM)
[10]
  MIC: 0.1 µg/mL (≈ 0.254 µM)
[11]
  MIC: 0.2 µg/mL (≈ 0.508 µM)
[12]
  MIC: 0.05 µg/mL (≈ 0.127 µM)
[13]
  MIC: 0.025 µg/mL (≈ 0.0636 µM)
[14]
  MIC: 0.025 µg/mL (≈ 0.0636 µM)
[15]
  MIC: 0.012 µg/mL (≈ 0.0305 µM)
[16]
  MIC: 0.05 µg/mL (≈ 0.127 µM)
[17]
  MIC: ≤ 0.006 µg/mL
[18]
  MIC: 0.012 µg/mL (≈ 0.0305 µM)
[19]
  MIC: 0.2 µg/mL (≈ 0.508 µM)
[20]
  MIC: 0.39 µg/mL (≈ 0.991 µM)
[21]
  MIC: 0.39 µg/mL (≈ 0.991 µM)
[25]
  MIC: 0.39 µg/mL
[26]
  MIC: 0.012 µg/mL
[27]
  MIC: ≤ 0.006 µg/mL
[28]
  MIC: 0.1 µg/mL (≈ 0.254 µM)
[29]
  MIC: 0.025 µg/mL (≈ 0.0636 µM)
[30]
  MIC: 0.012 µg/mL (≈ 0.0305 µM)
[31]
  MIC: 0.1 µg/mL (≈ 0.254 µM)
[32]
  MIC: 0.05 µg/mL (≈ 0.127 µM)

## CO[C@@]12[C@H](COC(N)=O)C3=C(C(=O)C(C)=C(N)C3=O)N1C[C@@H]1N[C@@H]12 [MMC, mitomycin C, reference compound]
[1]; dose 1 mg/kg (positive control)
  Emergence of micronucleus (%): 2.36±1.52 %
